# Measured values taken from paper PMC3328416 (2012).
# Target: T1, glutathione peroxidase 1 (GPx-1) (Bos taurus, UniProt P00435)
# T1 sequence (P00435 1-205): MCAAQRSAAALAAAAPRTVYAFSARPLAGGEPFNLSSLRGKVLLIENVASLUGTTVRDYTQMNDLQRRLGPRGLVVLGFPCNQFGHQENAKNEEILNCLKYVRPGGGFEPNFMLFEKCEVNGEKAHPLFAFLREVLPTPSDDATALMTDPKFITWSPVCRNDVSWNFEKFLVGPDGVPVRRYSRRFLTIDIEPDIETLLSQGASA
# Assay: immobilized enzyme inactivation, GR-coupled NADPH assay at […] nm after wash-out
# Format: biochemical
smiles,measurement,value
"CCN1C(=O)C=CC1=O [NEM, N-ethylmaleimide]",IC50,8.77 mM
